Data from paper PMC12415477, “Electrostatic interactions influence diazabicyclooctane inhibitor potency against OXA-48-like β-lactamases” (RSC Medicinal Chemistry, 2025).

Assays:
[1] = biological target: T1, OXA-48 (Klebsiella pneumoniae, UniProt Q6XEC0); settings: cited from earlier work; for Binding affinities and complex residence times against OXA-48: in words
T1 construct: pOPINF-OXA-48^(23-265) (previously cloned as described in Cahill et al); hexahistidine tag with 3C protease site (pOPINF) (N, cleaved yes); made in house; host or cells: E. coli BL21-DE3

[2] = biological target: T1, OXA-48; assay: IC50 determination, inhibition of nitrocefin hydrolysis by OXA-48; assay type: biochemical; settings: for Fold difference in IC50, nacubactam versus avibactam, OXA-48: ratio nacubactam IC50 / avibactam IC50
[3] = test system: OXA-163; assay: IC50 determination, inhibition of nitrocefin hydrolysis by OXA-163; assay type: biochemical; settings: IC50 OXA-48 / IC50 OXA-163
[4] = test system: OXA-405; assay: IC50 determination, inhibition of nitrocefin hydrolysis by OXA-405; assay type: biochemical; settings: IC50 OXA-48 / IC50 OXA-405
[5] = biological target: T2, OXA-163 (Klebsiella pneumoniae, UniProt Q6XEC0, DEL214-217/S212D); assay: IC50 determination, inhibition of nitrocefin hydrolysis by OXA-163; assay type: biochemical; design: genes encoding the mature OXA-163^23-261 (GenBank HQ700343); hexahistidine tag with 3C protease site (pOPINF) (N, cleaved yes); made in house; host or cells: E. coli BL21-DE3
[6] = biological target: T3, OXA-405 (Klebsiella pneumoniae, UniProt Q6XEC0, DEL213-216); assay: IC50 determination, inhibition of nitrocefin hydrolysis by OXA-405; assay type: biochemical; design: genes encoding the mature OXA-163^23-261 (GenBank HQ700343) and OXA-405^23-261 (GenBank KM589641) open reading frames; hexahistidine tag with 3C protease site (pOPINF) (N, cleaved yes); made in house; host or cells: E. coli BL21-DE3
[7] = biological target: T2, OXA-163; settings: 1 nM enzyme, pH 7.6
Description: (§1) All enzyme kinetics experiments were performed in 50 mM HEPES pH 7.6, 50 mM NaPO4 buffer supplemented with 50 mM NaHCO3 and 50 μg mL^−1 bovine serum albumin (BSA) in 96-well half area plates (Greiner, 675801).

[8] = biological target: T3, OXA-405; settings: 1 nM enzyme, pH 7.6
Description: as §1

[9] = test system: O=C(Cc1cccs1)N[C@@H]1C(=O)N2C(C(=O)O)=C(/C=C/c3ccc([N+](=O)[O-])cc3[N+](=O)[O-])CS[C@H]12; assay: purified protein, by the assay type; settings: other: 1 nM enzyme, pH 7.6
[10] = biological target: OXA-405 β-lactamase (mature, residues 23-261); assay: crystal structure; X-ray structures of the purified enzymes, uncomplexed and soaked with nacubactam or avibactam; crystals grown in 0.1 M HEPES pH 7.5 or 0.1 M Tris pH 8.5-9.0 with PEG 400 or PEG 550; homodimer seen in the crystal, chloride ion at the dimer interface
[11] = biological target: the molecule itself; assay: crystal structure
[12] = ratio nacubactam IC50 / avibactam IC50

O=C(NO[C@@H]1CCNC1)[C@@H]1CC[C@@H]2CN1C(=O)N2OS(=O)(=O)O [FPI-1465]
Binding affinities and complex residence times against OXA-48 [1]: lower binding affinities and complex residence times

O=C(NNC(=O)[C@@H]1CC[C@@H]2CN1C(=O)N2OS(=O)(=O)O)C1CNC1 [FPI-1602]
Binding affinities and complex residence times against OXA-48 [1]: lower binding affinities and complex residence times

NCCONC(=O)[C@@H]1CC[C@@H]2CN1C(=O)N2OS(=O)(=O)O [nacubactam]
IC50 ([2]; 1 nM enzyme pre-incubated 10 min with inhibitor, 75 μM nitrocefin, pH 7.6, read-out: IC50 against OXA-48): 19.9 µM
Fold difference in IC50, nacubactam versus avibactam, OXA-48 [2]: 77 fold
Fold difference in IC50, nacubactam versus avibactam, OXA-48 ([2]; listed as Nacubactam): 76.6 fold
Increase in inhibition potency towards OXA-163 compared to OXA-48 [3]: 16.2 fold
Increase in inhibition potency towards OXA-405 compared to OXA-48 [4]: 1.9 fold
Decrease in enzyme : inhibitor residence time (t1/2) compared to avibactam, OXA-48 [1]: approximately 37 fold
Increase in dissociation rate (koff) compared to avibactam, OXA-48 [1]: ~36 fold
IC50 [5]: 1.23 µM
Fold difference in IC50, nacubactam versus avibactam, OXA-163 [5, 12]: 6.2 fold
IC50 [6]: 10.6 µM
Fold difference in IC50, nacubactam versus avibactam, OXA-405 [6, 12]: 10.7 fold

O=C(Cc1cccs1)N[C@@H]1C(=O)N2C(C(=O)O)=C(/C=C/c3ccc([N+](=O)[O-])cc3[N+](=O)[O-])CS[C@H]12 [nitrocefin]
kcat, nitrocefin hydrolysis by OXA-163 [7]: 64.5 s⁻¹
Km ([7]; read-out: KM, nitrocefin hydrolysis by OXA-163): 13.4 µM
kcat, nitrocefin hydrolysis by OXA-405 [8]: 113.9 s⁻¹
Km ([8]; read-out: KM, nitrocefin hydrolysis by OXA-405): 33.9 µM

OXA-48 (Klebsiella pneumoniae)
Km [9]: 114.4 µM
kcat [9]: 515.0 s⁻¹
kcat/Km [9]: 5.2e+06 M⁻¹ s⁻¹

OXA-405 β-lactamase (mature, residues 23-261) (enzyme)
stoichiometry N [10]: 2

B1: OXA-163 β-lactamase (mature, residues 23-261) (enzyme)
chain: KEWQENKSWNAHFTEHKSQGVVVLWNENKQQGFTNNLKRANQAFLPASTFKIPNSLIALDLGVVKDEHQVFKWDGQTRDIATWNRDHNLITAMKYSVVPVYQEFARQIGEARMSKMLHAFDYGNEDISGNVDSFWLDGGIRISATEQISFLRKLYHNKLHVSERSQRIVKQAMLTEANGDYIIRAKTGYDTKIGWWVGWVELDDNVWFFAMNMDMPTSDGLGLRQAITKEVLKQEKIIP
notes: source: E. coli BL21-DE3, purified (Ni-NTA, 3C protease cleavage, second Ni-NTA, Superdex 75 SEC)
stoichiometry N [11]: 2

B2: OXA-48 β-lactamase (residues 23-265) (enzyme)
chain: KEWQENKSWNAHFTEHKSQGVVVLWNENKQQGFTNNLKRANQAFLPASTFKIPNSLIALDLGVVKDEHQVFKWDGQTRDIATWNRDHNLITAMKYSVVPVYQEFARQIGEARMSKMLHAFDYGNEDISGNVDSFWLDGGIRISATEQISFLRKLYHNKLHVSERSQRIVKQAMLTEANGDYIIRAKTGYSTRIEPKIGWWVGWVELDDNVWFFAMNMDMPTSDGLGLRQAITKEVLKQEKIIP
notes: also called OXA-48^(23-265); OXA-48 carbapenemase; source: E. coli BL21-DE3, purified (Ni-NTA, 3C protease cleavage, second Ni-NTA, Superdex 75 SEC)
stoichiometry N [11]: 2
